Laboratory results as given in patent publication US6509027B2, “Injectable pharmaceutical composition comprising coated particles of camptothecin” (priority 2001, dated 2003).

Assays:
[1] = tested on: A375 human melanoma xenografts; test: A375 human melanoma xenograft study 1, tumor growth delay method; assay type: in vivo, athymic nude mice
From the text: The following study evaluates two intravenous formulations according to the present invention against human tumor xenografts in athymic nude mice. The study used the A375 human melanoma xenograft model to compare the in vivo antitumor efficacy of I.V. 9-nitro-camptothecin, in vehicles containing IDD-P which provides a particulate suspension of 9-nitro-camptothecin, and IDD-D which provides a droplet suspension of 9-nitro-camptothecin, to the efficacy of oral 9-nitro-camptothecin and intraperitoneal CAMPTOSAR®, HYCAMTIN®, and DTIC®. Examples 1 and 2 describe the compositions of IDD-P (FIG. 1; formulation 1-F) and IDD-D respectively.
In order to assess antitumor efficacy, groups of athymic nude mice (n=10) bearing ˜72-mg A375 melanomas were treated intravenously on the 5/2/5 schedule with 9-nitro-camptothecin in IDD-P at 3.0 mg/kg or 1.5 mg/kg and 9-nitro-camptothecin in IDD-D at 2.0 mg/kg or 1.0 mg/kg.
Female nude mice were 16 weeks of age (NCR-nuJBr; Taconic Farms) for the A375 study. The mice were fed ad libitum water (reverse osmosis, 1 ppm Cl) and autoclaved Prolab NIH-31 M/5% Rodent Diet consisting of 18% protein, 5% fat, 6% fiber, and 8% ash. Mice were housed in static microisolators on a 12-hour light cycle at 21-22° C. (70-72° F.) and 40%-60% humidity. The animal care and use program is AAALAC International accredited and specifically follows and complies with the recommendation of the National Research Council's Guide for the Care and Use of Laboratory Animals.
An A375 melanoma fragment (1 mm 3) was implanted subcutaneously in the flank of each nude mouse. When the tumors reached the 60-112 mg size range, the mice were sorted into treatment groups (on Day 1) such that the group mean tumor sizes ranged from 71.3 mg-72.5 mg. Estimated tumor weight was calculated using the formula: [formula]
IDD-P with a mean particle size of […] and IDD-D with a mean particle size of […] were prepared for the study by RTP Pharma Inc. For this, the 9-nitro-camptothecin suspensions were diluted with water and vehicle to provide doses of 3 mg/kg and 1.5 mg/kg in 33% IDD-P, and doses of 2 mg/kg and 1 mg/kg in 100% and 50% IDD-D, respectively. After dilution, 9-nitro-camptothecin suspensions were mixed thoroughly by gentle agitation and stored at 2-8° C. For its oral formulation, 9-nitro-camptothecin was dissolved in DMA (N,N-dimethylacetamide, SIGMA) and diluted with D5W to yield a final DMA concentration of 3%. CAMPTOSAR®, DTIC®, and HYCAMTIN® were obtained as the marketed drugs and solutions were prepared fresh on the day of dosing. […]
The tumor growth delay (TGD) method was used to assess efficacy. Tumor dimensions were measured twice weekly until the experiment was terminated on Day 62. […]

[2] = Evaluation of toxicity in the A375 melanoma study; assay type: in vivo, athymic nude mice; conditions: Group 7: 150 mg/kg I.P., qd×5
Method: Volumes of 0.20 ml per 20-g mouse, body-weight adjusted, were administered once daily. Tumor-bearing athymic nude mice were matched on Day 1 into 13 groups of ten animals and drug administration was initiated. The I.V. formulations of 9-nitro-camptothecin were given once daily on a 5/2/5 schedule as shown in the protocol summary shown in FIG. 4. Oral 9-nitro-camptothecin doses were given on a q3d×4 schedule (Days 1, 4, 8, and 11). Three reference drugs were administered I.P.: CAMPTOSAR® was given in three doses at weekly intervals (qwk×3); HYCAMTIN® was given in four doses at four-day intervals (q4d×4); and DTIC® was given in five consecutive daily doses (qd×5). The tumor growth control group for these reference treatments received no treatment (Group 1). The 9-nitro-camptothecin vehicle: 33.3% IDD-P, 100% IDD-D, and 3% DMA, was administered to vehicle control Groups 2-4, respectively.
The maximum tolerated dose (MTD), as defined by the NCI, is the highest dose at which no more than 10% of the animals die and the group mean body-weight loss is no more than 20%. Body weights were measured daily for four or five days and then twice weekly thereafter until the experiments were terminated on Day 62 of the study. […] Because mice are not tagged for MTD studies, only the mean group body weights recorded in the appended raw data are significant in those studies.

[3] = i.v., clinical trials; cited from earlier work
[4] = molecular target: human serum albumin (HSA) (Homo sapiens, UniProt P02768); conditions: PBS at pH 7.4; cited from earlier work
Sequence of human serum albumin (HSA) (P02768 25-609): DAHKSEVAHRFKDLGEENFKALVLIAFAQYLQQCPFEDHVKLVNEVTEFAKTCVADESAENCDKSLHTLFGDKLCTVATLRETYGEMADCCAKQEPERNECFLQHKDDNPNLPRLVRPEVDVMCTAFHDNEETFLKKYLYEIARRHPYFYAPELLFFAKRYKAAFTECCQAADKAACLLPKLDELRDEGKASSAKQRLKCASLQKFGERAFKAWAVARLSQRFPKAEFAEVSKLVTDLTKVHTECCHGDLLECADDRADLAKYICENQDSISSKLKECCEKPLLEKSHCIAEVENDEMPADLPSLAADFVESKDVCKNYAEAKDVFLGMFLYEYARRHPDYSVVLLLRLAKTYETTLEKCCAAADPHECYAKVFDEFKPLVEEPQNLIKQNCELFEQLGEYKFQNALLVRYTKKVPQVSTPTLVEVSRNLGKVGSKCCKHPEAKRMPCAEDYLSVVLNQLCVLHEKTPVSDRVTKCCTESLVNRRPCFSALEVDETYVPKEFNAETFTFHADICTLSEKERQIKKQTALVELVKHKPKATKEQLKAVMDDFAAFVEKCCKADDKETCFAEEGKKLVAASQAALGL

CCc1c2c(nc3ccc(OC(=O)N4CCC(N5CCCCC5)CC4)cc13)-c1cc3c(c(=O)n1C2)COC(=O)[C@]3(O)CC [CAMPTOSAR®, irinotecan]
62-day survivors (of 10 mice) ([1]; Group 5: 100 mg/kg I.P., qwk×3): one
complete regression (CR) responses on Day 62 ([1]; Group 5: 100 mg/kg I.P., qwk×3, 100 mg/kg): single and one

CN(C)/N=N/c1[nH]cnc1C(N)=O [DTIC®, dacarbazine]
toxic deaths (of 10 mice) [2]: one and One

CC[C@@]1(O)C(=O)OCc2c1cc1n(c2=O)Cc2cc3c(CN(C)C)c(O)ccc3nc2-1 [HYCAMTIN®, topotecan]
62-day survivors (of 10 mice) ([1]; Group 6: 10 mg/kg I.P., q4d×4): one
complete regression (CR) responses on Day 62 ([1]; Group 6: 10 mg/kg I.P., q4d×4, 10 mg/kg): single and one

CC[C@@](O)(C(=O)[O-])c1cc2n(c(=O)c1CO)Cc1cc3ccccc3nc1-2.[Na+] [Sodium camptothecin]
clinical activity [3]: antitumor activity
clinical side effects [3]: unpredictable side effects such as myelosuppression and hemorrhagic cystitis

CC[C@@]1(O)C(=O)OCc2c1cc1n(c2=O)Cc2cc3ccccc3nc2-1 [camptothecin, 20(S)-camptothecin]
affinity of HSA for the carboxylate form relative to the α-hydroxy lactone form [4]: 150 fold
